Assay results as given in patent publication US6670367B1, “Azinyloxy, and phenoxy-diaryl-carboxylic acid derivatives, their preparation and use as mixed ETA/ETB endothelin receptor antagonists” (Abbott GmbH & Co., KG, priority 1996, dated 2003).

Tests used:
[1] = target: T1, human ETB receptor (Homo sapiens, UniProt P24530); test: ETB receptor binding assay (125I-ET3, membranes of receptor-expressing CHO cells); conditions: cloned human ETB receptor, CHO cell membranes, 25 pM 125I-ET3, 25° C., 30 min
T1 construct: expressed in transfected cells; host or cells: CHO cells (membrane preparation)
T1 sequence (P24530 27-442): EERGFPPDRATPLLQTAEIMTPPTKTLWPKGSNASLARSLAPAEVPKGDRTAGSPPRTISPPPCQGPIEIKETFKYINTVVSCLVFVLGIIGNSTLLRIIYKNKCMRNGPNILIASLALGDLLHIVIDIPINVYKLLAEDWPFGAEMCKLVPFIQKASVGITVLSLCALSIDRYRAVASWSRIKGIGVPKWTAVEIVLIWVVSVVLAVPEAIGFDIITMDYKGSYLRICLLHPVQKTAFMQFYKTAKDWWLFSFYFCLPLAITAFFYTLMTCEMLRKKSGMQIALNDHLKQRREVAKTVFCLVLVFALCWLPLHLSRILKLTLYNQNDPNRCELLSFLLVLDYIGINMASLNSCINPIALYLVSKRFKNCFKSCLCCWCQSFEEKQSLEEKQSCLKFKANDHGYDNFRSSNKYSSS
Description: (§1) Cloned human ETA or ETB receptor-expressing CHO cells were employed for binding studies.
(§2) The ETA or ETB receptor-expressing CHO cells were grown in DMEM NUT MIX F12 medium (Gibco, No. 21331-020) with 10% fetal calf serum (PAA Laboratories GmbH, Linz, No. A15-022), 1 mM glutamine (Gibco No. 25030-024), 100 U/ml penicillin and 100 μg/ml streptomycin (Gibco, Sigma No. P-0781). After 48 hours, the cells were washed with PBS and incubated with 0.05% trypsin-containing PBS at 37° C. for 5 minutes. Neutralization with medium was then carried out, and the cells were collected by centrifugation at 300×g.
(§3) For the membrane preparation, the cells were adjusted to a concentration of 10^8 cells/ml of buffer (50 mM tris.HCL buffer, pH 7.4) and then disintegrated by ultrasound (Branson Sonifier 250, 40-70 seconds/constant/output 20).
(§4) For the ETA and ETB receptor binding assays, the membranes were suspended in incubation buffer (50 mM tris-HCl, pH 7,4 with 5 mM MnCl2, 40 μg/ml bacitracin and 0.2% BSA) at a concentration of 50 μg of protein per assay mixture, and incubated with 25 pM ^125I-ET1 (ETA receptor assay) or 25 pM ^125I-ET3 (ETB receptor assay) in the presence and absence of test substance at 25° C. The nonspecific binding was determined with 10^−7 M ET1. Filtration was carried out after 30 min through GF/B glassfiber filters (Whatman, England) in a Skatron cell collector (Skatron, Lier, Norway) to separate free and bound radio ligands, and the filters were washed with ice-cold tris-HCl buffer, pH 7.4 with 0.2% BSA. The radioactivity collected on the filters was quantified using a
(§5) Packard 2200 CA liquid scintillation counter.

[2] = target: T2, human ETA receptor (Homo sapiens, UniProt P25101); test: ETA receptor binding assay (125I-ET1, membranes of receptor-expressing CHO cells); conditions: cloned human ETA receptor, CHO cell membranes, 25 pM 125I-ET1, 25° C., 30 min
T2 construct: expressed in transfected cells; host or cells: CHO cells (membrane preparation)
T2 sequence (P25101 21-427): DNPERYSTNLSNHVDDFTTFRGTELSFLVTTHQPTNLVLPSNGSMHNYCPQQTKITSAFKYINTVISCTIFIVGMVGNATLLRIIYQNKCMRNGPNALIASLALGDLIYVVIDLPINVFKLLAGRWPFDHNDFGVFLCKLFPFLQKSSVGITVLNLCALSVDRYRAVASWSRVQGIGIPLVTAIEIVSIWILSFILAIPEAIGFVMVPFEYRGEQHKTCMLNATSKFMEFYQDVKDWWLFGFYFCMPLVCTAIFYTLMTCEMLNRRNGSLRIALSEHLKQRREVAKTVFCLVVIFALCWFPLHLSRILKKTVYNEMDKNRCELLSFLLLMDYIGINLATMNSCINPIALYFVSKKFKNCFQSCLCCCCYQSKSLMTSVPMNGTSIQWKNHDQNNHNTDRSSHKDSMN
Description: as §1, §2, §3, §4, §5

| Structure (SMILES) | Ki [1] [nM] | Ki [2] [nM] | melting point |
| --- | --- | --- | --- |
| COc1ccc(CCOC(c2ccccc2)(c2ccccc2)C(Oc2nc(C)cc(OC)n2)C(=O)O)cc1 (stereo not shown) [Compound I-622, 2-(4-Methoxy-6-methyl-2-pyrimidinyloxy)-3-(2-(4-methoxyphenyl)ethoxy)-3,3-diphenylpropionic Acid] | 23 | 3 |  |
| CCCOc1ccc(CCOC(c2ccccc2)(c2ccccc2)C(Oc2nc(C)cc(OC)n2)C(=O)O)cc1 (stereo not shown) [Compound I-69, 2-(4-Methoxy-6-methyl-2-pyrimidinyloxy)-3-(2-(4-propoxyphenyl)ethoxy)-3,3-diphenylpropionic Acid] |  |  | 115 to 119 °C |
| COc1cc(C)nc(OC(C(=O)O)C(OCCc2ccc(Cl)cc2)(c2ccccc2)c2ccccc2)n1 (stereo not shown) [Compound I-746, 2-(4-Methoxy-6-methyl-2-pyrimidinyloxy)-3-(2-(4-chlorophenyl)ethoxy)-3,3-diphenylpropionic Acid] |  |  | 93 to 98 °C |
| CCc1ccc(C(OCCc2ccc(OC)cc2)(c2ccc(CC)cc2)C(Oc2nc(C)cc(C)n2)C(=O)O)cc1 (stereo not shown) [Compound I-148, 2-(4,6-Dimethyl-2-pyrimidinyloxy)-3-(2-(4-methoxyphenyl)ethoxy)-3,3-di(4-ethylphenyl)propionic Acid] |  |  | 130 to 133 °C |
| COc1ccc(CCOC(c2ccccc2)(c2ccccc2)[C@H](Oc2nc(C)cc(C)n2)C(=O)O)cc1OC [I-445 (S) enantiomer, (S)-2-(4,6-Dimethylpyrimidin-2-yloxy)-3-(2-(3,4-dimethoxyphenyl)ethoxy)-3,3-diphenylpropionic Acid] | 4.1 | 1.3 |  |
| CCCCOc1ccc(CCOC(c2ccccc2)(c2ccccc2)C(Oc2nc(C)cc(C)n2)C(=O)O)cc1 (stereo not shown) [Compound I-70, 2-(4,6-Dimethyl-2-pyrimidinyloxy)-3-(2-(4-butoxyphenyl)ethoxy)-3,3-diphenylpropionic Acid] |  |  | 122 to 125 °C |
| COc1ccc(CCCOC(c2ccccc2)(c2ccccc2)C(Oc2nc(C)cc(OC)n2)C(=O)O)cc1 (stereo not shown) [Compound I-554, 2-(4-Methoxy-6-methyl-2-pyrimidinyloxy)-3-(3-(4-methoxyphenyl)propoxy)-3,3-diphenylpropionic Acid] |  |  | 160 to 165 °C |
| CCOc1ccc(CCOC(c2ccccc2)(c2ccccc2)C(Oc2nc(C)cc(C)n2)C(=O)O)cc1OC (stereo not shown) [Compound I-146, 2-(4,6-Dimethyl-2-pyrimidinyloxy)-3-(2-(4-ethoxy-3-methoxyphenyl)ethoxy)-3,3-diphenylpropionic Acid] | 29 | 4 |  |
| COc1ccc(CCOC(c2ccccc2)(c2ccccc2)[C@@H](Oc2nc(C)cc(C)n2)C(=O)O)cc1OC [I-445 (R) enantiomer] | 140 | 65 |  |
| COc1ccccc1CCOC(c1ccccc1)(c1ccccc1)C(Oc1nc(OC)c2c(n1)OCC2)C(=O)O (stereo not shown) [Compound I-140] | 460 | 575 |  |
| COc1cc(C)nc(OC(C(=O)O)C(OCCc2ccccc2OC)(c2ccc(Cl)cc2)c2ccc(Cl)cc2)n1 (stereo not shown) [Compound I-487, 2-(4-Methoxy-6-methyl-2-pyrimidinyloxy)-3-(2-(2-methoxyphenyl)ethoxy)-3,3-di(4-chlorophenyl)propionic Acid] |  |  | 85 to 90 °C |
| Cc1cc(C)nc(OC(C(=O)O)C(OCCc2ccc(C(C)C)cc2)(c2ccccc2)c2ccccc2)n1 (stereo not shown) [Compound I-672, 2-(4,6-Dimethyl-2-pyrimidinyloxy)-3-(2-(4-i-propylphenyl)ethoxy)-3,3-diphenylpropionic Acid] | 185 | 60 |  |
| COc1cc(C)nc(OC(C(=O)O)C(O/C=C/Cc2ccccc2)(c2ccccc2)c2ccccc2)n1 (stereo not shown) [Compound I-44, 2-(4-Methoxy-6-methyl-2-pyrimidinyloxy)-3-(3-phenyl-(2E)-propenoxy)-3,3-diphenylpropionic Acid] |  |  | 171 to 174 °C |
| COc1cc(C)nc(OC(C(=O)O)C(OCCCc2ccccc2)(c2ccccc2)c2ccccc2)n1 (stereo not shown) [Compound I-499, 2-(4-Methoxy-6-methyl-2-pyrimidinyloxy)-3-(3-phenylpropoxy)-3,3-diphenylpropionic Acid] | 135 | 31 |  |
| Cc1cc(C)nc(OC(C(=O)O)C(OCCCc2ccccc2Cl)(c2ccccc2)c2ccccc2)n1 (stereo not shown) [Compound I-384, 2-(4,6-Dimethyl-2-pyrimidinyloxy)-3-(3-(2-chlorophenyl)propoxy)-3,3-diphenylpropionic Acid] |  |  | 172 to 178 °C |
| COc1cc(C)nc(OC(C(=O)O)C(OCCc2ccccc2)(c2ccccc2)c2ccccc2)n1 (stereo not shown) [Compound I-719, 2-(4-Methoxy-6-methyl-2-pyrimidinyloxy)-3-(2-phenylethoxy)-3,3-diphenylpropionic Acid] |  |  | 155 °C (dec.) |
| Cc1cc(C)nc(OC(C(=O)O)C(O/C=C/Cc2ccccc2)(c2ccccc2)c2ccccc2)n1 (stereo not shown) [Compound I-27, 2-(4,6-Dimethyl-2-pyrimidinyloxy)-3-(3-phenyl-(2E)-propenoxy)-3,3-diphenylpropionic Acid] |  |  | 128 to 133 °C |
| CCCCOc1ccc(CCOC(c2ccccc2)(c2ccccc2)C(Oc2nc(C)cc(OC)n2)C(=O)O)cc1 (stereo not shown) [Compound I-71, 2-(4-Methoxy-6-methyl-2-pyrimidinyloxy)-3-(2-(4-butoxyphenyl)ethoxy)-3,3-diphenylpropionic Acid] |  |  | 118 to 122 °C |
| CCc1ccc(C(OCCc2ccc(OC)cc2)(c2ccc(CC)cc2)C(Oc2nc(C)cc(OC)n2)C(=O)O)cc1 (stereo not shown) [Compound I-147, 2-(4-Methoxy-6-methyl-2-pyrimidinyloxy)-3-(2-(4-methoxyphenyl)ethoxy)-3,3-di(4-ethylphenyl)propionic Acid] |  |  | 150 to 155 °C |
| COc1cc(C)nc(OC(C(=O)O)C(OCCc2ccc(C)cc2)(c2ccccc2)c2ccccc2)n1 (stereo not shown) [Compound I-465, 2-(4-Methoxy-6-methyl-2-pyrimidinyloxy)-3-(2-(4-methylphenyl)ethoxy)-3,3-diphenylpropionic Acid] |  |  | 145 to 147 °C |
| COc1ccc(CCOC(c2ccccc2)(c2ccccc2)C(Oc2nc(C)cc(C)n2)C(=O)O)cc1 (stereo not shown) [Compound I-585, 2-(4,6-Dimethyl-2-pyrimidinyloxy)-3-(2-(4-methoxyphenyl)ethoxy)-3,3-diphenylpropionic Acid] | 23 | 6 |  |
| Cc1cc(C)nc(OC(C(=O)O)C(OCCc2ccccc2)(c2ccccc2)c2ccccc2)n1 (stereo not shown) [Compound I-720, 2-(4,6-Dimethyl-2-pyrimidinyloxy)-3-(2-phenylethoxy)-3,3-diphenyl propionic Acid] |  |  | 130 to 133 °C |
| CCc1ccc(C(OCCc2ccc(OC)c(OC)c2)(c2ccc(CC)cc2)C(Oc2nc(C)cc(OC)n2)C(=O)O)cc1 (stereo not shown) [Compound I-116, 2-(4-Methoxy-6-methyl-2-pyrimidinyloxy)-3-(2-(3,4-dimethoxyphenyl)ethoxy)-3,3-di(4-ethylphenyl)propionic Acid] | 35 | 35 |  |
| COc1ccc(CCCOC(c2ccccc2)(c2ccccc2)C(Oc2nc(C)cc(C)n2)C(=O)O)cc1 (stereo not shown) [Compound I-555, 2-(4,6-Dimethyl-2-pyrimidinyloxy)-3-(3-(4-methoxyphenyl)propoxy)-3,3-diphenylpropionic Acid] |  |  | 165 to 170 °C |
| COc1cc(C)nc(OC(C(=O)O)C(OCCc2ccc(C)cc2)(c2ccc(Cl)cc2)c2ccc(Cl)cc2)n1 (stereo not shown) [Compound I-710, 2-(4-Methoxy-6-methyl-2-pyrimidinyloxy)-3-(2-(4-methylphenyl)ethoxy)-3,3-di(4-chlorophenyl)propionic Acid] |  |  | 90 to 100 °C |
